Assay results: PMC3157396, “Molecular Basis for the Recognition of Adenomatous Polyposis Coli by the Discs Large 1 Protein” (PLoS ONE, 2011)
Entries after “also recorded” stand apart in the source; their conditions may differ. Values belong to the substance of their own block, whether it stands above or below them.

How the values were obtained:
[1] = target: T1, PDZ1 domain of DLG1 (residues 220–310) (Homo sapiens, UniProt Q12959); assay: GST pull-down assay, PDZ1; assay type: binding; conditions: GST-APC peptide immobilized, 4°C, 25 mM Tris-HCl pH 8.0, 150 mM NaCl, 2 mM DTT, SDS-PAGE, Coomassie Blue
T1 construct: The cDNAs encoding PDZ1 (residues 220–310); His tag (N); made in house; host or cells: E. coli BL21 (DE3)
Source text: (§1) The cDNAs encoding PDZ1 (residues 220–310), PDZ2 (residues 315–410), PDZ3 (462–552), and PDZ1-PDZ2 (residues 220–410) domains of human DLG1 were cloned into pET28a (Novagen)-derived vectors and over-expressed as N-terminal His-tagged proteins. The C-terminal 11 residues of human APC (residues 2833–2843, APC-C11, with sequence […]), the C-terminal 4 residues of human APC (residues 2840–2843, APC-C4, sequence VTSV), and residues 2833–2842 of APC (APC-C10, sequence […]) were cloned into the pGEX4T1 (GE Healthcare) vector to be expressed as N-terminal GST-tagged recombinant proteins.
(§2) All proteins except PDZ1-PDZ2 were over-expressed in E. coli strain BL21 (DE3), and PDZ1-PDZ2 was over-expressed in E. coli strain BL21 (RIL). Cells were cultured at 37°C in LB medium and incubated for 20 hours at 18°C with 0.5 mM isopropyl β-D-1-thiogalactopyranoside (IPTG) on reaching OD600 = 0.6. Cells were harvested by centrifugation and resuspended in the binding buffer (Ni^2+-NTA column binding buffer: 25 mM Tris-HCl, pH 8.0, 300 mM NaCl, and 20 mM imidazole; GST column binding buffer: 25 mM Tris-HCl, pH 8.0, 150 mM NaCl, and 2 mM DTT). The cells were lysed by sonication, followed by centrifugation. Supernatants of the cells lysates were purified by Ni^2+-NTA affinity chromatography (Qiagen) or GST affinity chromatography (GE Healthcare). PDZ1, PDZ2, PDZ3, and PDZ1-PDZ2 proteins were then purified by Superdex 200 gel filtration chromatography equilibrated with a buffer containing 20 mM Tris-HCl, pH 8.0, 100 mM NaCl, and 2 mM DTT.
(§3) GST pull-down assays between wild-type (WT) or mutant APC peptides and WT or mutant PDZ domain proteins were performed according to standard procedures. […] The bound proteins were eluted with the GST column elution buffer (50 mM Tris-HCl, pH 8.0, 150 mM NaCl, and 7 mM glutathione), and then analyzed by SDS-PAGE and Coomassie Blue staining.

[2] = target: T2, PDZ2 domain of DLG1 (residues 315–410) (Homo sapiens, UniProt Q12959); assay: ITC, PDZ2 titrated into GST-tagged APC peptides; assay type: binding; conditions: 25°C, 50 mM HEPES pH 7.5, 100 mM NaCl
T2 construct: PDZ2 (residues 315–410); His tag (N); made in house; host or cells: E. coli BL21 (DE3)
Source text: as §1, §2
(§4) Isothermal titration calorimetry (ITC) experiments were performed using an ITC200 system (GE Healthcare) at 25°C. The buffer contained 50 mM HEPES, pH 7.5, and 100 mM NaCl. Proteins were centrifuged and degassed before the experiment. Typically, a WT or mutant DLG1 PDZ domain protein (400 µM) was injected 20 times in 2 µl aliquots into a 300 µl sample cell containing GST-tagged APC-C11 or APC-C4 protein (40 µM). Data were fit with a nonlinear least-square routine using a single site binding model with Origin for ITC version 7.0 (MicroCal), varying the stoichiometry (n), the enthalpy of the reaction (ΔH), and the association constant (K a).

[3] = target: T2, PDZ2 domain of DLG1 (residues 315–410); assay: GST pull-down assay, PDZ2; assay type: binding; conditions: for binding in GST pull-down (in words): PDZ2 (WT), GST-APC peptide immobilized, 4°C, 25 mM Tris-HCl pH 8.0, 150 mM NaCl, 2 mM DTT, SDS-PAGE, Coomassie Blue
Source text: as §1, §2, §3

[4] = tested on: PDZ1-PDZ2 of DLG1 (residues 220–410); assay: GST pull-down assay, PDZ1-PDZ2; assay type: binding, human; conditions: GST-APC peptide immobilized, 4°C, 25 mM Tris-HCl pH 8.0, 150 mM NaCl, 2 mM DTT, SDS-PAGE, Coomassie Blue
Source text: as §1
All proteins except PDZ1-PDZ2 were over-expressed in E. coli strain BL21 (DE3), and PDZ1-PDZ2 was over-expressed in E. coli strain BL21 (RIL). Cells were cultured at 37°C in LB medium and incubated for 20 hours at 18°C with 0.5 mM isopropyl β-D-1-thiogalactopyranoside (IPTG) on reaching OD600 = 0.6. […]
as §3

[5] = target: T1, PDZ1 domain of DLG1 (residues 220–310); assay: ITC, PDZ1 titrated into GST-tagged APC peptides; assay type: binding; conditions: 25°C, 50 mM HEPES pH 7.5, 100 mM NaCl
Source text: as §1, §2, §4

PDZ2 Δ339–346 (DLG1) [6] = target: T3, PDZ2 Δ339–346 (DLG1) (Homo sapiens, UniProt Q12959, DEL339-346); assay: ITC, PDZ2 Δ339–346 titrated into GST-APC-C11; assay type: binding; conditions: 25°C, 50 mM HEPES pH 7.5, 100 mM NaCl
T3 construct: PDZ2 (residues 315–410); His tag (N); made in house; host or cells: E. coli BL21 (DE3)
T3 sequence (Q12959 with tags, fused parts or gaps DEL339-346): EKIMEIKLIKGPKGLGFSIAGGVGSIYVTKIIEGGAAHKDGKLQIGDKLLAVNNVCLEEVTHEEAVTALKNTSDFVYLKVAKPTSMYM
Source text: (§5) The 3D structures of the three PDZ domains of DLG1 have been determined in the free forms [13]–[15]. They share very similar structures, and the ligand binding pockets are also conserved. […] The residues in the β2/β3 loops of PDZ domains in other proteins have also been implicated in determining their target ligand binding affinities, [18]. In order to know whether the β2/β3 loop also plays an important role in the interaction between APC and DLG1, we created a similar mutant of PDZ2 deleting residues 339–346.
as §1
Isothermal titration calorimetry (ITC) experiments were performed using an ITC200 system (GE Healthcare) at 25°C. The buffer contained 50 mM HEPES, pH 7.5, and 100 mM NaCl. Proteins were centrifuged and degassed before the experiment. […]

PDZ2 Q340P (DLG1) [7] = target: T4, PDZ2 Q340P (DLG1) (Homo sapiens, UniProt Q12959, Q340P); assay: ITC, PDZ2 Q340P titrated into GST-APC-C11; assay type: binding; conditions: 25°C, 50 mM HEPES pH 7.5, 100 mM NaCl
T4 construct: PDZ2 (residues 315–410); His tag (N); made in house; host or cells: E. coli BL21 (DE3)
T4 sequence (Q12959 315-410 Q340P): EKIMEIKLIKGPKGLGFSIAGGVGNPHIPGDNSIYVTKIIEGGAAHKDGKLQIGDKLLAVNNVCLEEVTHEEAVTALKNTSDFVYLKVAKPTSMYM
Source text: as §1, §4

PDZ2 Q340P (DLG1) [8] = target: T4, PDZ2 Q340P (DLG1); assay: GST pull-down assay, PDZ2 Q340P; assay type: binding; conditions: PDZ2 Q340P vs WT PDZ2; GST-APC-C11 immobilized, 4°C; 25 mM Tris-HCl pH 8.0, 150 mM NaCl, 2 mM DTT
Source text: as §1, §3

PDZ3 domain of DLG1 = target: T5, PDZ3 domain of DLG1 (Homo sapiens, UniProt Q12959); assay: ITC, PDZ3 titrated into GST-APC-C11; assay type: binding; conditions: 25°C, 50 mM HEPES pH 7.5, 100 mM NaCl
T5 construct: PDZ3 (462–552); His tag (N); made in house; host or cells: E. coli BL21 (DE3)
Source text: as §1
as §2, with “PDZ1, PDZ2, PDZ3, and PDZ1-PDZ2 proteins were then purified by Superdex 200 gel filtration chromatography equilibrated with a buffer containing 20 mM Tris-HCl, pH 8.0, 100 mM NaCl, and 2 mM DTT.” left out

PDZ2 Δ339–346 (DLG1) [9] = target: T3, PDZ2 Δ339–346 (DLG1); assay: GST pull-down assay, PDZ2 Δ339–346; assay type: binding; conditions: PDZ2 Δ339–346 vs WT PDZ2; GST-APC-C11 immobilized, 4°C; 25 mM Tris-HCl pH 8.0, 150 mM NaCl, 2 mM DTT
Source text: as §5, §1
GST pull-down assays between wild-type (WT) or mutant APC peptides and WT or mutant PDZ domain proteins were performed according to standard procedures. […]

[10] = tested on: PDZ1 and PDZ2 domains of PSD-95; conditions: cited from earlier work
Source text: The 3D structures of the three PDZ domains of DLG1 have been determined in the free forms [13]–[15]. They share very similar structures, and the ligand binding pockets are also conserved. […] The residues in the β2/β3 loop ...

[11] = tested on: P245Q mutation in PDZ1 of DLG1; conditions: cited from earlier work
Source text: This residue difference might account for the higher affinity between PDZ2 and APC.

T1 sequence (Q12959 220-310): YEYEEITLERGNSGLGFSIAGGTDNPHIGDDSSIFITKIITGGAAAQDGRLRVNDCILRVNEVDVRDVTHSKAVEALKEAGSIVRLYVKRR
T2 sequence (Q12959 315-410): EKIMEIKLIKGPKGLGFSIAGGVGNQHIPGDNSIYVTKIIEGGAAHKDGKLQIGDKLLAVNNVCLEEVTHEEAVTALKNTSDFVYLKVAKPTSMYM
T5 sequence (Q12959 462-552): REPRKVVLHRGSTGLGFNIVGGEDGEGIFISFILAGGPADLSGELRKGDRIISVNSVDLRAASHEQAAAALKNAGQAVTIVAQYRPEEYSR

Substance: VTSV [APC-C4]
- binding in GST pull-down (in words) [1]: significantly weaker compared to GST-APC-C11
- interaction / heat of reaction by ITC (in words) ([2]; PDZ2, listed as GST-APC-C4): no detectable heat of reaction; also recorded: no detectable interaction was observed
- binding in GST pull-down (in words) [3]: significantly weaker compared to GST-APC-C11
- binding in GST pull-down (in words) [4]: significantly weaker compared to GST-APC-C11
- interaction / heat of reaction by ITC (in words) ([5]; PDZ1, listed as GST-APC-C4): no detectable heat of reaction; also recorded: no detectable interaction was observed

- interaction / heat of reaction by ITC (in words) (PDZ2 Δ339–346 (DLG1) [6]): no detectable heat of reaction
- interaction / heat of reaction by ITC (in words) (PDZ2 Δ339–346 (DLG1) [6]; listed as GST-APC-C11): no detectable interaction was observed
- binding in GST pull-down (in words) [1]: somewhat weaker, but detectable binding
- DLG/APC ratio (PDZ2 Q340P (DLG1) [7]; 400 µM PDZ2 Q340P into 40 µM GST-APC-C11, single site binding model): 1.04±0.03
- TΔS (PDZ2 Q340P (DLG1) [7]; PDZ2 Q340P into GST-APC-C11): 0.0793 kcal/mol
- ΔH (PDZ2 Q340P (DLG1) [7]; PDZ2 Q340P into GST-APC-C11, negative = exothermic): -6.76 ± 0.27 kcal/mol
- DLG/APC ratio ([2]; 400 µM PDZ2 into 40 µM GST-tagged APC peptide, single site binding model): 0.916±0.018
- TΔS ([2]; PDZ2 into GST-tagged APC peptide): 1.07 kcal/mol
- ΔH ([2]; PDZ2 into GST-tagged APC peptide, negative = exothermic): -7.09 ± 0.19 kcal/mol
- binding in GST pull-down (in words) ([3]; listed as GST-APC-C11): bound most strongly
- binding in GST pull-down (in words) [4]: bound most strongly
- interaction / heat of reaction by ITC (in words) (PDZ3 domain of DLG1): no detectable interaction was observed
- DLG/APC ratio ([5]; 400 µM PDZ1 into 40 µM GST-tagged APC peptide, single site binding model): 0.918±0.127
- TΔS ([5]; PDZ1 into GST-tagged APC peptide): 2.44 kcal/mol
- ΔH ([5]; PDZ1 into GST-tagged APC peptide, negative = exothermic): -4.02 ± 0.82 kcal/mol
Substance: RHSGSYLVTSV [APC-C11]
- binding in GST pull-down (in words) [3]: stronger than that between PDZ1 and APC-C11
- binding in GST pull-down in crystallization-like buffer (in words) ([3]; PDZ2, buffer similar to the condition in which PDZ2/APC-C11 crystallized, data not shown): weaker than that between PDZ1 and APC-C11
- binding in GST pull-down (in words) (PDZ2 Q340P (DLG1) [8]): greatly diminished the association; also recorded: substantially weaker interaction
- binding in GST pull-down (in words) (PDZ2 Δ339–346 (DLG1) [9]): significantly decreases the interaction; also recorded: dramatically decreased the interaction

- binding in GST pull-down (in words) [1]: no interaction could be observed
- binding in GST pull-down (in words) [3]: no interaction could be observed
Substance: RHSGSYLVTS [APC-C10]

Substance: NR2B: NR2B subunit of NMDA receptors
- change of binding affinity on deletion of six residues from the β2/β3 loops (in words) [10]: decreases the binding affinity
- fold increase in binding affinity for NR2B [11]: 2 fold
